# Test results reported in publication PMC4865845, “A human genome-wide loss-of-function screen identifies effective chikungunya antiviral drugs” (Nature Communications, 2016).
# Test system: CHIKV
# Assay type: cell-based, chikungunya virus
Substance,Score_si3,Score_si2,Score_si4,Score_si1
s4918 (sense GGCACTTACTATGACAATT; chemistry not given here),1.02,,,
s5030 (sense GGTATGCGACGGGAAAGTA; chemistry not given here),1.75,,,
s5031 (sense CCGTGGACCTGATCATCAA; chemistry not given here),,2.04,,
s5032 (sense GGAGCGTATCTGTGAGAAA; chemistry not given here),,,1.56,
s5082 (sense CCTCGATAATATAACACGA; chemistry not given here),,,0.67,
s5083 (sense CGTCGTCACTAACAGTCAA; chemistry not given here),1.11,,,
s5295 (sense CGAGGTCATTGTGCATGAA; chemistry not given here),,,0.77,
s5296 (sense GCTTCACCATCGAATCCAA; chemistry not given here),1.01,,,
s5569 (sense AGGCTGAAGCTAATAAGAA; chemistry not given here),0.16,,,
s5570 (sense TGAACAAGATGGTATCAAA; chemistry not given here),,,-0.08,
s5571 (sense GCAGGACGAGGGTAAAGAA; chemistry not given here),,0.56,,
s6097 (sense TCAGGACCCTGTACACCCA; chemistry not given here),,,0.9,
s6098 (sense CCTTTAACGTGGACATGTA; chemistry not given here),,,,1.88
s6126 (sense GAATGCTCCTTTACCAGAA; chemistry not given here),,0.75,,
s6350 (sense GCCCATATACATTCTGCAA; chemistry not given here) [reference compound],,,-0.73,
s6670 (sense CAACAGGAGGAAGACTTTA; chemistry not given here),,,-0.15,
s6671 (sense CAACGAAAATCTAAATGCA; chemistry not given here),,0.2,,
s6672 (sense GACTAATGAACTACTAAAA; chemistry not given here),0.16,,,

Substance,Score_si3,Score_si2,Score_si4,Score_si1
s7005 (sense AGAAAAATCTCAAGGAAAA; chemistry not given here),1.86,,,
s7007 (sense GGATCGGGTTCTAAAGGAA; chemistry not given here),,1.87,,
s7586 (sense CCTACTGTCTGGTAGCGAT; chemistry not given here),,1.49,,
s8004 (sense GTGGAGGAATGGTTCAATA; chemistry not given here),0.87,,,
s8005 (sense CCATGACTCCTGACTACCA; chemistry not given here),,,0.75,
s8261 (sense GGGTGGAGGTGTACTATGA; chemistry not given here),0.99,,,
s8290 (sense GGTGCTAACCGGATAGTAT; chemistry not given here),,,0.74,
s8292 (sense GGATTGTTATCCGACTGAA; chemistry not given here),1.63,,,
s8322 (GGTCGGAGATTTGCAAGGA; chemistry not given here),1.44,,,
s8324 (GCTGGGAAGGGATACCACA; chemistry not given here),,,,1.92
s8541 (CAATCTCCGGAGGCACGAA; chemistry not given here),0.12,,,
s8542 (AGGTTTTAACGATTTGTTT; chemistry not given here),,0.14,,
s8543 (CCTCAACAGTCACGTCAGA; chemistry not given here),,,-0.08,
s9030 (CATCTGGAATTAACTGGAT; chemistry not given here),1.53,,,
s9031 (CGACGACAGCTACTGGTTT; chemistry not given here),,,0.9,
s9324 (ACAACTTCAGTGCTGATCA; chemistry not given here),0.83,,,
s9325 (CTTCAGTGCTGATCAGGTA; chemistry not given here),,,0.41,
